{"source": "patent EP0213571A2", "about": "“3-Aminomethyl pyrrol-1-yl-alkyl amines and medicaments containing these compounds” (BASF Aktiengesellschaft, priority 1985, dated 1987)", "system": "Histamin-H₂-Rezeptor", "test": "Antagonism of the dimaprit-induced fall in blood pressure in the anaesthetised rat, test substance given i.v.", "type": "in vivo, Ratten (Stamm: Sprague-Dawley, männlich)", "experimental": "Sie kann in 1 bis 4 Dosen/Tag aufgeteilt werden.\nZum Nachweis der Histamin-H₂-Rezeptor-blockierenden Wirkung wird folgende Methode angewendet.\nDie Applikation der geprüften Substanzen erfolgt intravenös 5 min vor der Dimaprit-Injektion. Als ED 50 % werden die Dosen ermittelt, welche die Dimaprit-Blutdrucksenkung um 50 % hemmen."}
{"compound": "CNC(=NC#N)NCCSCc1nc[nH]c1C", "note": "[Cimetidin]", "values": [{"measurement": "Hemmung der Dimaprit-Blutdrucksenkung", "setting": "anaesthetised rats (urethane 1,78 g/kg i.p.), substance i.v. 5 min before Dimaprit 3,16 mg/kg i.v.", "value": "hemmen diese Dimaprit-Blutdrucksenkung dosisabhängig"}]}
{"compound": "CN(C)CCCSC(=N)N", "note": "[Dimaprit, S-[3-(N,N-dimethylamino)propyl]isothio urea]", "values": [{"measurement": "Blutdrucksenkungen", "setting": "Dimaprit 3,16 mg/kg i.v. alone, anaesthetised rats, mean, baseline pressure 100 ± 1, 1 mmHg, N = 70", "value": "27 ± 0,7 mmHg"}]}
{"compound": "CNC(=NC#N)NCCCCn1c(C)ccc1C", "note": "[Verbindung des Beispiels 12]", "values": [{"measurement": "Histamin-H₂-Rezeptoren-blockierende Wirkung", "setting": "result in words, potency compared with Cimetidin, b35 names no test, assigned to the only test described", "value": "wesentlich schwächer wirksam als Cimetidin"}]}
